Assay results published in patent publication US20200256860A1, “PRINTABLE HYDROGELS FOR BIOMOLECULE IMMOBILIZATION AND STABILIZATION” (priority 2019, published 2020).

Columns and labels:
TEM-1 β-lactamase [1] = target: T1, TEM-1 β-lactamase (Escherichia coli, UniProt P62593); format: biochemical; settings: promiscuous aggregating inhibitors
[2] = Aggregate size and polydispersity by dynamic light scattering; format: physicochemical; settings: 100 μM solutions, DLS
Method: Following, to assess the capacity of the printed hydrogels to differentiate between specific and non-specific inhibition, the confirmed promiscuous inhibitors rottlerin and BIS IX (both kinase inhibitors) and tetraiodophenolphthalein (TIPT, another established aggregate forming compound) were tested against TEM-1 β-lactamase (an isoform of β-lactamase) both in solution (modeling a conventional microplate assay) and using a printed hydrogel array. […] In this way, the size selectivity of the printed hydrogel layer excludes the promiscuous inhibitors from accessing the enzyme encapsulated in the hydrogel and thus avoids the false positive hits observed in solution assays. […] Intensity distributions are measured using dynamic light scattering (normalized to maximum intensity).

TEM-1 β-lactamase [3] = target: T1, TEM-1 β-lactamase; format: biochemical; settings: promiscuous aggregating inhibitors, printed hydrogel array, starting concentration 100 μM
Method: Images were taken with a Canon DSLR camera (operated in manual focus mode without flash) after 25 min. […] Extracted images were inverted and converted to 8 bit grayscale images. […] Calculation of IC50 values was carried out in OriginPro by plotting the calculated percentage inhibition against the added inhibitor concentration.
Intensity distributions are measured using dynamic light scattering (normalized to maximum intensity).

proteinase K = proteinase K (Parengyodontium album, UniProt P06873); test: Protease protection studies; format: physicochemical; settings: 2 hours
Chain of proteinase K (P06873 106-384, species assumed): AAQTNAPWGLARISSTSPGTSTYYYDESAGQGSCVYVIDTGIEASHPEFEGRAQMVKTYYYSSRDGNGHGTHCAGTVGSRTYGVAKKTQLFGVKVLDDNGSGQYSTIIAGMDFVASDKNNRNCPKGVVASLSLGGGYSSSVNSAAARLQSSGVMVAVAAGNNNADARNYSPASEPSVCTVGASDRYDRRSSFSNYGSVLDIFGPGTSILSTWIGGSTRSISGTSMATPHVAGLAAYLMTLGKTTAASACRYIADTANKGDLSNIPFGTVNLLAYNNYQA
Method: 10 μL of a 2 mg/mL proteinase K solution (prepared in 10 mM PBS and 1 mM CaCl2) was pipetted onto the printed enzyme samples both with and without hydrogel encapsulation. The samples were incubated in a closed container for 2 hours at room temperature, after which substrate solutions were pipetted onto the treated samples at the volumes listed in Table 1. Image acquisition and analysis was performed as described for the entrapment studies. The intensity of each sample was measured and presented as a ratio of the corresponding control image (untreated with protease).

[4] = Long-term stability studies (storage at room temperature); format: physicochemical; settings: hydrogel-entrapped enzyme, at least three months
Method: Printed enzyme samples were stored in a closed, dark container at room temperature for time periods ranging from 7 days up to 3 months. Image acquisition and analysis was performed as described previously for the entrapment and proteinase K degradation studies. The intensity of each sample was measured and presented as a ratio of the corresponding control image (freshly printed).

T1 sequence (P62593 24-286 limits assumed): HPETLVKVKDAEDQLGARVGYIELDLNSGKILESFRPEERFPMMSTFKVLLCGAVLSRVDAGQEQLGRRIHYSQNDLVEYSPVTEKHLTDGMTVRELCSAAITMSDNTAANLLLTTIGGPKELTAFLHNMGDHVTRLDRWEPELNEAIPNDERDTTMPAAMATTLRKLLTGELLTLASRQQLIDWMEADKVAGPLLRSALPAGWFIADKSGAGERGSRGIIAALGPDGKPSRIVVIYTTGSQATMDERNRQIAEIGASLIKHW

Compound | Inhibition of β-lactamase in the solution-based assay (TEM-1 β-lactamase [1]) | Aggregate size [2] | Polydispersity [2] | Inhibition of β-lactamase in the hydrogel-based assay (TEM-1 β-lactamase [3]) | Activity retained after proteinase K (proteinase K; enzyme printed directly on nitrocellulose without hydrogel (printed alone)) | Activity retained after proteinase K (proteinase K; enzyme printed with POH in the absence of gel formation) | Activity retained after storage [4]
Cn1cc(C2=C(c3cn(CCCSC(=N)N)c4ccccc34)C(=O)NC2=O)c2ccccc21 [BIS IX] | inhibited β-lactamase | 365 ± 9 nm | 0.36 ± 0.02 | no specific inhibition | – | – | –
CC(=O)c1c(O)c(C)c(O)c(Cc2c(O)c3c(c(C(=O)/C=C/c4ccccc4)c2O)OC(C)(C)C=C3)c1O [Rottlerin, rottlerin] | inhibited β-lactamase | 188 ± 1 nm | 0.24 ± 0.01 | no specific inhibition | – | – | –
alkaline phosphatase | – | – | – | – | ~40% | > 80% | ~100%
